Publication PMC3774136 (Bioorganic & medicinal chemistry letters, 2013)
Where two headings read alike, the source gives them in different places.

Legend:
[1] = test system: MCF-7 human breast cancer cells; assay: Growth of MCF-7 human breast cancer cells; assay type: cell-based; settings: compared with CA-4
[2] = test system: tubulin; settings: read-out: Tubulin polymerization IC50; as reported in the literature; cited from earlier work
[3] = test system: tubulin (colchicine site); settings: as reported in the literature, cited from earlier work

Row | Compound | Cytotoxic activity in MCF-7 cells (in words) [1] | IC50 [2] | Inhibition of binding of colchicine, % inhibition ([3]; 1 µM inhibitor) | Inhibition of binding of colchicine, % inhibition ([3]; 5 µM inhibitor)
1 | COc1ccc(Sc2cc(OC)c(OC)c(OC)c2)cc1[N+](=O)[O-] [Compound 2] | inactive |  |  | 
2 | COc1cc(SSc2cc(OC)c(OC)c(OC)c2)cc(OC)c1OC [Compound 8] | inactive |  |  | 
3 | COc1ccc(Sc2cc(OC)c(OC)c(OC)c2)cc1 [Compound 1] |  | 1200 ± 100 nM | 56 ± 7% | 89 ± 1%
4 | COc1ccc([Se]c2ccc(OC)cc2)cc1 [Compound 12] | inactive |  |  | 
5 | COc1ccc([Se][Se]c2ccc(OC)cc2)cc1 [Compound 13] | inactive |  |  | 
